Target: NACHT, LRR and PYD domains-containing protein 3 (Homo sapiens, UniProt Q96P20)
Test: Evaluation of NLRP3 Inflammasome Inhibitory Activity Assay
Protocol: The NLRP3 inflammasome inhibitory activity of test compounds were evaluated CM the basis of the inhibitory activity of the IL-1β, production in THP1-Null cells (Product Number: thp-null, InvivoGen). […] A solution containing a test compound (20 μL/well) was added to test compound-setting wells. […] The supernatant of the culture was cryonically stored (set at −20° C.) until measurement of IL-1β.

NACHT, LRR and PYD domains-containing protein 3, sequence (Q96P20 whole entry, the tested form may be a part): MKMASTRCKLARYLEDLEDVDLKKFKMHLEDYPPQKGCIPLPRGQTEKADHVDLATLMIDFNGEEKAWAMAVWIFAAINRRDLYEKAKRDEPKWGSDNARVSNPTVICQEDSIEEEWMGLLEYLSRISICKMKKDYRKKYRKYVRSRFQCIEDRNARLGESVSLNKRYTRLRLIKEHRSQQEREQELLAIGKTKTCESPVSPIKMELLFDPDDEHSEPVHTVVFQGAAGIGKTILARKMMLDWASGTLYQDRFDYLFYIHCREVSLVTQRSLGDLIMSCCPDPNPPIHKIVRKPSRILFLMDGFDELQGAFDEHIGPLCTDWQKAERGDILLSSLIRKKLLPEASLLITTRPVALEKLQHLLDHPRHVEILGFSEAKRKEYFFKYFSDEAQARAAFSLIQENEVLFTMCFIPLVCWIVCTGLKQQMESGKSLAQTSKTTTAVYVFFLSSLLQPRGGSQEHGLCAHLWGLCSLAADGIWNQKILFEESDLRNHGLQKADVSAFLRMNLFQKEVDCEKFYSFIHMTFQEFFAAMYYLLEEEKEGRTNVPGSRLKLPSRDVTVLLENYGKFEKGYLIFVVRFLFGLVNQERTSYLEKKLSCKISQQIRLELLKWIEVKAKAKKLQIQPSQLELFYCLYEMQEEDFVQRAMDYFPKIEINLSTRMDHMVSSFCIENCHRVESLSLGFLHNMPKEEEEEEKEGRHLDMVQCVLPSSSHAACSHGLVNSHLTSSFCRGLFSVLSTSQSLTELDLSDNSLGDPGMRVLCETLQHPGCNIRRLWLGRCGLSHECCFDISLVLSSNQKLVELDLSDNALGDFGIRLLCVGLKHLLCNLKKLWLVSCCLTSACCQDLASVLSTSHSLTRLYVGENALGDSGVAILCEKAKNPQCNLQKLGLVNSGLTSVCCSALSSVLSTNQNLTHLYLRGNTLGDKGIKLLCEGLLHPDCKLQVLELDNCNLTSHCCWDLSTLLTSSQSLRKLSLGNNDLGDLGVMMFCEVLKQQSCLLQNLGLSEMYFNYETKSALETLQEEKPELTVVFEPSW

Structure (SMILES) | IC50 [nM]
COC[C@H]1CCCN1S(=O)(=O)NC(=O)c1coc(Nc2cc(C(F)(F)F)ccc2C)n1 [US20230399319, Example 2-052] | 130
CCOC[C@@H]1OCCN(S(=O)(=O)NC(=O)c2coc(Nc3cc(C)c(F)cc3C)n2)C[C@H]1OC [US20230399319, Example 3-007] | 820
Cc1ccc(C(F)(F)F)cc1Nc1nc(C(=O)NS(=O)(=O)N2CCCC(C#N)(C(=O)N3CCCC3)CC2)co1 (stereo not drawn) [US20230399319, Example 2-261] | 28
Cc1ccc(C(F)(F)F)cc1Nc1nc(C(=O)NS(=O)(=O)N2CCCC(=O)CC2)co1 [US20230399319, Example 2-149] | 32
Cc1cc(F)c(C(C)C)cc1Nc1nc(C(=O)NS(=O)(=O)N2CCOCC(C)(O)C2)co1 (stereo not drawn) [US20230399319, Example 2-351] | 22
CCCCS(=O)(=O)N1CCCN(S(=O)(=O)NC(=O)c2coc(Nc3cn(C(C)C)nc3C(C)C)n2)CC1 [US20230399319, Example 2-161] | 70
Cc1ccc(C)c(Nc2nc(C(=O)NS(=O)(=O)N3CCOC(COCC4CCC4)CC3)co2)c1 (stereo not drawn) [US20230399319, Example 2-342] | 10
Cc1cc(Nc2nc(C(=O)NS(=O)(=O)N3CCCOCC3)co2)c(C(C)C)cc1F [US20230399319, Example 2-334] | 26
Cc1ccc(C(F)(F)F)cc1Nc1nc(C(=O)NS(=O)(=O)N2CCC(C(F)(F)F)CC2)co1 [US20230399319, Example 2-024] | 31
Cc1cc(Cl)c(C(C)C)cc1Nc1nc(C(=O)NS(=O)(=O)N(C)C)co1 [US20230399319, Example 2-027] | 34
Cc1cn(C(C)C(F)(F)F)nc1Nc1nc(C(=O)NS(=O)(=O)N2CCCOCC2)co1 (stereo not drawn) [US20230399319, Example 2-178] | 880
Cc1ccc(C(F)(F)F)cc1Nc1nc(C(=O)NS(=O)(=O)N2CCCN(c3ncccn3)[C@H](C)C2)co1 [US20230399319, Example 2-313] | 22
Cc1ccc(C(C)(C)C)cc1Nc1nc(C(=O)NS(=O)(=O)N2CCCOCC2)co1 [US20230399319, Example 2-112] | 65
Cc1ccc(C(C)C)cc1Nc1nc(C(=O)NS(=O)(=O)N(C)Cc2ccccn2)co1 [US20230399319, Example 2-167] | 48
Cc1ccc(C(F)(F)F)cc1Nc1nc(C(=O)NS(=O)(=O)N2CCC(c3ccccc3)CC2)co1 [US20230399319, Example 2-282] | 2500
CC1(C)CCN(S(=O)(=O)NC(=O)c2coc(Nc3c4c(c(F)c5c3CCC5)CCC4)n2)C1 [US20230399319, Example 2-009] | 380
Cc1ccc(C(F)(F)F)cc1Nc1nc(C(=O)NS(=O)(=O)N2C[C@H]3COC[C@@H]3C2)co1 [US20230399319, Example 2-201] | 320
Cc1ccc(C(F)(F)F)cc1Nc1nc(C(=O)NS(=O)(=O)N2CCC(C#N)C2)co1 (stereo not drawn) [US20230399319, Example 2-221] | 210
COC[C@H]1CCN(S(=O)(=O)NC(=O)c2coc(Nc3cc(C)c(F)cc3C)n2)CCO1 [US20230399319, Example 3-001] | 72
CCCS(=O)(=O)C1CCCN(S(=O)(=O)NC(=O)c2coc(Nc3cc(C(F)(F)F)ccc3C(C)C)n2)CC1 (stereo not drawn) [US20230399319, Example 2-316] | 22
Cc1ccc(C(F)(F)F)cc1Nc1nc(C(=O)NS(=O)(=O)N2CC(F)(F)C2)co1 [US20230399319, Example 2-077] | 530

Structure (SMILES) | IC50 [nM]
Cc1ccc(C(F)(F)F)cc1Nc1nc(C(=O)NS(=O)(=O)N(C)CCn2cccn2)co1 [US20230399319, Example 2-279] | 74
CCOCC1CCN(S(=O)(=O)NC(=O)c2coc(Nc3cc(OC)c(F)cc3C)n2)CCO1 (stereo not drawn) [US20230399319, Example 2-352] | 26
CCC(CC)n1cc(C)c(Nc2nc(C(=O)NS(=O)(=O)N3CCCOCC3)co2)n1 [US20230399319, Example 2-168] | 9800
Cc1ccc(C(C)C)cc1Nc1nc(C(=O)NS(=O)(=O)N2CCOC(CN(C)C)CC2)co1 (stereo not drawn) [US20230399319, Example 2-341] | 88
CCC1(C#N)CCCN(S(=O)(=O)NC(=O)c2coc(Nc3cc(C(F)(F)F)ccc3C)n2)CC1 (stereo not drawn) [US20230399319, Example 2-240] | 31
Cc1ccc(C)c(Nc2nc(C(=O)NS(=O)(=O)N3CCOC(CC#N)CC3)co2)c1 (stereo not drawn) [US20230399319, Example 2-349] | 1200
Cc1ccc(C(F)(F)F)cc1Nc1nc(C(=O)NS(=O)(=O)N2CCC(CS(C)(=O)=O)CC2)co1 [US20230399319, Example 2-022] | 240
CCC(=O)N(C)C1CCCN(S(=O)(=O)NC(=O)c2coc(Nc3cc(C(F)(F)F)ccc3C)n2)C1 (stereo not drawn) [US20230399319, Example 2-255] | 210
Cc1ccc(C(F)(F)F)cc1Nc1nc(C(=O)NS(=O)(=O)N2CCCC(C#N)CC2)co1 (stereo not drawn) [US20230399319, Example 2-141] | 9.7
Cc1ccc(C(F)(F)F)cc1Nc1nc(C(=O)NS(=O)(=O)N2CCOC3(COC3)C2)co1 [US20230399319, Example 2-017] | 83
Cc1cccc(C)c1Nc1nc(C(=O)NS(=O)(=O)N2CCCOCC2)co1 [US20230399319, Example 2-115] | 1300
Cc1ccc(C(F)(F)F)cc1Nc1nc(C(=O)NS(=O)(=O)N(C)CC(=O)N(C)C)co1 [US20230399319, Example 2-110] | 340
Cc1ccc(C(F)(F)F)cc1Nc1nc(C(=O)NS(=O)(=O)N(C)Cc2ccccc2)co1 [US20230399319, Example 2-163] | 49
CC(C)c1ccc(C(C)C)c(Nc2nc(C(=O)NS(=O)(=O)N3CCCOCC3)co2)c1 [US20230399319, Example 2-071] | 43
Cc1ccc(C(F)(F)F)cc1Nc1nc(C(=O)NS(=O)(=O)N2CCC(F)(F)C2)co1 [US20230399319, Example 2-021] | 90
CCOCC1CCN(S(=O)(=O)NC(=O)c2coc(Nc3cc(C)c(F)cc3C(C)C)n2)CCO1 (stereo not drawn) [US20230399319, Example 2-335] | 18
Cc1ccc(C(F)(F)F)cc1Nc1nc(C(=O)NS(=O)(=O)N2CCN(S(=O)(=O)N(C)C)CC2)co1 [US20230399319, Example 2-266] | 50
COC[C@@H]1CCCN1S(=O)(=O)NC(=O)c1coc(Nc2cc(C)ccc2C)n1 [US20230399319, Example 2-303] | 140
Cc1ccc(C(F)(F)F)cc1Nc1nc(C(=O)NS(=O)(=O)N2CCCC(CC#N)CC2)co1 (stereo not drawn) [US20230399319, Example 2-150] | 25
Cc1ccc(C(F)(F)F)cc1Nc1nc(C(=O)NS(=O)(=O)N(C)CC#N)co1 [US20230399319, Example 2-108] | 130
CN(C)S(=O)(=O)NC(=O)c1coc(Nc2cc(C(F)(F)F)ccc2C2CC2)n1 [US20230399319, Example 2-067] | 92

Structure (SMILES) | IC50 [nM]
COCC1CCN(S(=O)(=O)NC(=O)c2coc(Nc3cc(C(F)(F)F)ccc3C)n2)C1 (stereo not drawn) [US20230399319, Example 2-307] | 69
Cc1ccc(C(F)(F)F)cc1Nc1nc(C(=O)NS(=O)(=O)N(C)Cc2cnccn2)co1 [US20230399319, Example 2-236] | 100
Cc1ccc(C(F)(F)F)cc1Nc1nc(C(=O)NS(=O)(=O)N2CCCS(=O)(=O)CC2)co1 [US20230399319, Example 2-239] | 170
COCC1COCCN(S(=O)(=O)NC(=O)c2coc(Nc3cc(C(F)(F)F)ccc3C)n2)C1 (stereo not drawn) [US20230399319, Example 2-151] | 64
CC(C)c1ccc(C(F)(F)F)cc1Nc1nc(C(=O)NS(=O)(=O)N2CCCOCC2)co1 [US20230399319, Example 2-072] | 27
COC[C@@H]1CCN(S(=O)(=O)NC(=O)c2coc(Nc3cc(C)c(F)cc3C)n2)CCO1 [US20230399319, Example 2-347] | 55
Cc1ccc(C(F)(F)F)cc1Nc1nc(C(=O)NS(=O)(=O)N2CCC[C@H]2C(=O)N(C)C)co1 [US20230399319, Example 2-079] | 280
Cc1ccc(C(F)(F)F)cc1Nc1nc(C(=O)NS(=O)(=O)N(C)CCC(=O)N(C)C)co1 [US20230399319, Example 2-338] | 77
Cc1ccc(C(F)(F)F)cc1Nc1nc(C(=O)NS(=O)(=O)N2CCCC(c3ccccc3)C2)co1 (stereo not drawn) [US20230399319, Example 2-284] | 1400
Cc1ccc(C(F)(F)F)cc1Nc1nc(C(=O)NS(=O)(=O)N2CCN(c3ncccn3)CC2)co1 [US20230399319, Example 2-265] | 1100
Cc1ccc(C(C)C)cc1Nc1nc(C(=O)NS(=O)(=O)N(C)C)co1 [US20230399319, Example 2-040] | 130
Cc1cn(C(C)C)nc1Nc1nc(C(=O)NS(=O)(=O)N2CCCC(C#N)CC2)co1 (stereo not drawn) [US20230399319, Example 2-192] | 160
CC(=O)NCCN(C)S(=O)(=O)NC(=O)c1coc(Nc2cc(C(F)(F)F)ccc2C)n1 [US20230399319, Example 2-162] | 300
Cc1ccc(C(F)(F)F)cc1Nc1nc(C(=O)NS(=O)(=O)N(C)CC2CCCCC2)co1 [US20230399319, Example 2-206] | 150
COCCN(Cc1ccccc1)S(=O)(=O)NC(=O)c1coc(Nc2cc(C(F)(F)F)ccc2C)n1 [US20230399319, Example 2-268] | 55
Cc1ccc(C(C)CC#N)cc1Nc1nc(C(=O)NS(=O)(=O)N(C)C)co1 (stereo not drawn) [US20230399319, Example 2-096] | 1800
COC1CCN(S(=O)(=O)NC(=O)c2coc(Nc3cc(C(F)(F)F)ccc3C)n2)C1 (stereo not drawn) [US20230399319, Example 2-199] | 160
COCCCN(C)S(=O)(=O)NC(=O)c1coc(Nc2cc(C(F)(F)F)ccc2C)n1 [US20230399319, Example 2-235] | 94
CCCCC1(C#N)CCCN(S(=O)(=O)NC(=O)c2coc(Nc3cc(C(F)(F)F)ccc3C)n2)CC1 (stereo not drawn) [US20230399319, Example 2-249] | 30
CCOC[C@H]1OCCN(S(=O)(=O)NC(=O)c2coc(Nc3cc(C)c(F)cc3C)n2)C[C@@H]1OC [US20230399319, Example 3-006] | 30
Cc1ccc(C(F)(F)F)cc1Nc1nc(C(=O)NS(=O)(=O)N2CCCC(N(C)C)CC2)co1 (stereo not drawn) [US20230399319, Example 2-173] | 120

From BindingDB's records for patent US20230399319 (Japan Tobacco, 2023)
